In brackets after ≈: the same amount, converted by molar mass.
Experiments:
Format in all cases: functional
Staphylococcus aureus = assay: Antibacterial activity against Staphylococcus aureus ATCC 25923 by serial dilution method
Pseudomonas aeruginosa = assay: Antibacterial activity against Pseudomonas aeruginosa ATCC 27853 by serial dilution method
Escherichia coli = assay: Antibacterial activity against Escherichia coli ATCC 25922 by serial dilution method
Bacillus subtilis = assay: Antibacterial activity against Bacillus subtilis by serial dilution method
Candida albicans = assay: Antifungal activity against Candida albicans NCIM No. 3100 by serial dilution method

**Q.** With Nn1c(SCC(=O)c2c([O-])on[n+]2-c2ccccc2)nnc(Cc2ccc3c(c2)OCO3)c1=O as the compound, how does the MIC (Staphylococcus aureus) read?
**A.** 0.25 µg/mL (≈ 0.52 µM)

**Q.** And the MIC (Pseudomonas aeruginosa)?
**A.** 0.25 µg/mL (≈ 0.52 µM)

**Q.** And the MIC (Escherichia coli)?
**A.** 0.25 µg/mL (≈ 0.52 µM)

**Q.** What about the MIC (Bacillus subtilis) of the same compound?
**A.** 0.25 µg/mL (≈ 0.52 µM)

**Q.** What about the MIC (Candida albicans) of the same compound?
**A.** 0.25 µg/mL (≈ 0.52 µM)

**Q.** Which results are given for Nn1c(SCC(=O)c2c([O-])on[n+]2-c2ccccc2)nnc(Cc2ccc(Br)cc2)c1=O?
**A.** MIC (Staphylococcus aureus): 0.25 µg/mL (≈ 0.485 µM); MIC (Pseudomonas aeruginosa): 0.25 µg/mL (≈ 0.485 µM); MIC (Escherichia coli): 0.25 µg/mL (≈ 0.485 µM); MIC (Bacillus subtilis): 0.25 µg/mL (≈ 0.485 µM); MIC (Candida albicans): 0.25 µg/mL (≈ 0.485 µM)

**Q.** For Nn1c(SCC(=O)c2c([O-])on[n+]2-c2ccccc2)nnc(Cc2ccc([N+](=O)[O-])cc2)c1=O, which MIC (Staphylococcus aureus) is on record?
**A.** 0.5 µg/mL (≈ 1.04 µM)

**Q.** What about the MIC (Pseudomonas aeruginosa) of the same compound?
**A.** 0.25 µg/mL (≈ 0.519 µM)

**Q.** What about the MIC (Escherichia coli) of the same compound?
**A.** 0.25 µg/mL (≈ 0.519 µM)

**Q.** What about the MIC (Bacillus subtilis) of the same compound?
**A.** 0.25 µg/mL (≈ 0.519 µM)

**Q.** What about the MIC (Candida albicans) of the same compound?
**A.** 0.25 µg/mL (≈ 0.519 µM)

**Q.** What does the source list for Nn1c(SCC(=O)c2c([O-])on[n+]2-c2ccccc2)nnc(Cc2ccccc2)c1=O?
**A.** MIC (Staphylococcus aureus): 0.25 µg/mL (≈ 0.573 µM); MIC (Pseudomonas aeruginosa): 0.25 µg/mL (≈ 0.573 µM); MIC (Escherichia coli): 0.25 µg/mL (≈ 0.573 µM); MIC (Bacillus subtilis): 0.25 µg/mL (≈ 0.573 µM); MIC (Candida albicans): 0.25 µg/mL (≈ 0.573 µM)

**Q.** Nn1c(SCC(=O)c2c([O-])on[n+]2-c2ccccc2)nnc(Cc2ccc(Cl)cc2)c1=O was tested. Which MIC (Staphylococcus aureus) did it give?
**A.** 0.25 µg/mL (≈ 0.531 µM)

**Q.** What about the MIC (Pseudomonas aeruginosa) of the same compound?
**A.** 0.25 µg/mL (≈ 0.531 µM)

**Q.** And the MIC (Escherichia coli)?
**A.** 0.25 µg/mL (≈ 0.531 µM)

**Q.** What about the MIC (Bacillus subtilis) of the same compound?
**A.** 0.25 µg/mL (≈ 0.531 µM)

**Q.** What about the MIC (Candida albicans) of the same compound?
**A.** 0.25 µg/mL (≈ 0.531 µM)

**Q.** With COc1ccc(-[n+]2noc([O-])c2C(=O)CSc2nnc(Cc3ccccc3)c(=O)n2N)cc1 as the compound, how does the MIC (Staphylococcus aureus) read?
**A.** 0.25 µg/mL (≈ 0.536 µM)

**Q.** What about the MIC (Pseudomonas aeruginosa) of the same compound?
**A.** 0.25 µg/mL (≈ 0.536 µM)

**Q.** What about the MIC (Escherichia coli) of the same compound?
**A.** 0.25 µg/mL (≈ 0.536 µM)

**Q.** What about the MIC (Bacillus subtilis) of the same compound?
**A.** 0.25 µg/mL (≈ 0.536 µM)

**Q.** And the MIC (Candida albicans)?
**A.** 0.25 µg/mL (≈ 0.536 µM)

**Q.** What does the source list for COc1ccc(-[n+]2noc([O-])c2C(=O)CSc2nnc(Cc3ccc(Cl)cc3)c(=O)n2N)cc1?
**A.** MIC (Staphylococcus aureus): 0.25 µg/mL (≈ 0.499 µM); MIC (Pseudomonas aeruginosa): 0.25 µg/mL (≈ 0.499 µM); MIC (Escherichia coli): 0.25 µg/mL (≈ 0.499 µM); MIC (Bacillus subtilis): 0.25 µg/mL (≈ 0.499 µM); MIC (Candida albicans): 0.25 µg/mL (≈ 0.499 µM)

**Q.** NC(=O)N/N=C/c1ccc([N+](=O)[O-])o1 [NITROFURAZONE] was tested. Which MIC (Staphylococcus aureus) did it give?
**A.** 0.5 µg/mL (≈ 2.52 µM)

**Q.** What about the MIC (Pseudomonas aeruginosa) of the same compound?
**A.** 0.5 µg/mL (≈ 2.52 µM)

**Q.** And the MIC (Escherichia coli)?
**A.** 0.25 µg/mL (≈ 1.26 µM)

**Q.** What about the MIC (Bacillus subtilis) of the same compound?
**A.** 0.5 µg/mL (≈ 2.52 µM)

**Q.** Which MIC (Candida albicans) does the source give for OC(Cn1cncn1)(Cn1cncn1)c1ccc(F)cc1F [FLUCONAZOLE] here?
**A.** 0.25 µg/mL (≈ 0.816 µM)

**Q.** Cc1ccc(-[n+]2noc([O-])c2C(=O)CSc2nnc(Cc3ccc(Cl)cc3)c(=O)n2N)cc1 was tested. Which MIC (Staphylococcus aureus) did it give?
**A.** 0.25 µg/mL (≈ 0.516 µM)

**Q.** What about the MIC (Pseudomonas aeruginosa) of the same compound?
**A.** 0.25 µg/mL (≈ 0.516 µM)

**Q.** And the MIC (Escherichia coli)?
**A.** 0.25 µg/mL (≈ 0.516 µM)

**Q.** And the MIC (Bacillus subtilis)?
**A.** 0.25 µg/mL (≈ 0.516 µM)

**Q.** What about the MIC (Candida albicans) of the same compound?
**A.** 0.25 µg/mL (≈ 0.516 µM)

**Q.** How did the MIC (Staphylococcus aureus) turn out when COc1ccc(-[n+]2noc([O-])c2C(=O)CSc2nnc(Cc3ccc(Br)cc3)c(=O)n2N)cc1 was run?
**A.** 0.25 µg/mL (≈ 0.458 µM)

**Q.** And the MIC (Pseudomonas aeruginosa)?
**A.** 0.25 µg/mL (≈ 0.458 µM)

**Q.** And the MIC (Escherichia coli)?
**A.** 0.25 µg/mL (≈ 0.458 µM)

**Q.** What about the MIC (Bacillus subtilis) of the same compound?
**A.** 0.25 µg/mL (≈ 0.458 µM)

**Q.** And the MIC (Candida albicans)?
**A.** 0.25 µg/mL (≈ 0.458 µM)

**Q.** Cc1ccc(-[n+]2noc([O-])c2C(=O)CSc2nnc(Cc3ccc(Br)cc3)c(=O)n2N)cc1 was tested. Which MIC (Staphylococcus aureus) did it give?
**A.** 0.25 µg/mL (≈ 0.472 µM)

**Q.** And the MIC (Pseudomonas aeruginosa)?
**A.** 0.25 µg/mL (≈ 0.472 µM)

**Q.** And the MIC (Escherichia coli)?
**A.** 0.25 µg/mL (≈ 0.472 µM)

**Q.** And the MIC (Bacillus subtilis)?
**A.** 0.25 µg/mL (≈ 0.472 µM)

**Q.** What about the MIC (Candida albicans) of the same compound?
**A.** 0.25 µg/mL (≈ 0.472 µM)

**Q.** Which results are given for Cc1ccc(-[n+]2noc([O-])c2C(=O)CSc2nnc(Cc3ccc4c(c3)OCO4)c(=O)n2N)cc1?
**A.** MIC (Staphylococcus aureus): 0.25 µg/mL (≈ 0.506 µM); MIC (Pseudomonas aeruginosa): 0.25 µg/mL (≈ 0.506 µM); MIC (Escherichia coli): 0.25 µg/mL (≈ 0.506 µM); MIC (Bacillus subtilis): 0.25 µg/mL (≈ 0.506 µM); MIC (Candida albicans): 0.25 µg/mL (≈ 0.506 µM)

**Q.** How did the MIC (Staphylococcus aureus) turn out when Cc1ccc(-[n+]2noc([O-])c2C(=O)CSc2nnc(Cc3ccccc3)c(=O)n2N)cc1 was run?
**A.** 0.25 µg/mL (≈ 0.555 µM)

**Q.** And the MIC (Pseudomonas aeruginosa)?
**A.** 0.25 µg/mL (≈ 0.555 µM)

**Q.** And the MIC (Escherichia coli)?
**A.** 0.25 µg/mL (≈ 0.555 µM)

**Q.** What about the MIC (Bacillus subtilis) of the same compound?
**A.** 0.25 µg/mL (≈ 0.555 µM)

**Q.** And the MIC (Candida albicans)?
**A.** 0.25 µg/mL (≈ 0.555 µM)

Reference: ChEMBL document CHEMBL1154470, “Synthesis and antimicrobial activities of a new series of 4-S-[4(1)-amino-5(1)-oxo-6(1)-substituted benzyl-4(1),5(1)-dihydro-1(1),2(1),4(1)-triazin-3-yl]mercaptoacetyl-3-arylsydnones” (2008)
